Test results published in EP0955045A1, “DRUGS FOR IMPROVING OCULAR CIRCULATION DISORDERS” (Senju Pharmaceutical Co., Ltd., priority 1996, dated 1998).
Counter-ions that a name gives are not always drawn. Like-named read-outs stand apart in the source and are kept apart here.

Legend:
[1] = test system: blood flow of optic nerve head induced by intravitreous injection of ET-1; assay: Effect of topical instillation on the ET-1-induced decrease in optic nerve head blood flow (hydrogen clearance method); assay type: in vivo, Male Dutch pigmented rabbits; settings: versus physiological saline in contralateral eye; 30 to 120 minutes after ET-1 injection; paired t-test; n=6
Method: The effect of topically applied amosulalol hydrochloride on the blood flow of optic nerve head induced by intravitreous injection of ET-1 in pigmented rabbits.
Male Dutch pigmented rabbits weighing about 2 kg were purchased from Fukusaki Rabbit Farmers Association and used after confirmation of absence of ocular abnormality. The rabbits were housed at 23 ±3 °C and 55±10% R.H. and put on a ration of 100 g/day of rabbit chow (Labo R Stock, Nippon Nosan Kogyo K.K.) with free access to tap water.
As the investigational drug, the anti-ocular circulatory disturbance composition containing 0.5% (w/v) of amosulalol hydrochloride as obtained in Example 7 was used. As a control drug, physiological saline solution was used. […]
The rabbit was placed in a retainer for rabbits and, after instillation of Mydrin P (Registered Trademark, Santen Pharmaceutical) for mydriasis and observation of the optic nerve head for any abnormality, general anesthesia was introduced by injecting urethane (dissolved in distilled water to 20% concentration), 1 g/kg, subcutaneously in the abdominal region. […] The half-life (T1/2) was determined from the line and the blood flow was calculated by means of Kety's theoretical formula (Journal of Clinical Investigate, 27, 476-483, 1948). […]

mice = settings: cited from earlier work

**Q.** Which “inhibition of the ET-1-induced decrease in blood flow” value [1] does the source give for `COc1ccccc1OCCNCC(O)c1ccc(C)c(S(N)(=O)=O)c1` (stereo not drawn) [amosulalol hydrochloride, 5-{1-hydroxy-2-[2-(2-methoxyphenoxy)ethylamino]ethyl}-2-methylbenzenesulfonamide] here?
**A.** inhibited

**Q.** What about the acute toxicity (mice; intravenous administration) of the same compound?
**A.** very low

**Q.** What about the acute toxicity (mice; oral administration) of the same compound?
**A.** very low
